Assay results reported in patent publication US9822130B2, “Triazolo-pyrazinyl derivatives useful as soluble guanylate cyclase activators” (Merck Sharp & Dohme Corp., priority 2014, dated 2017).

Biological target: T1, sGC α1/β1 heterodimer stably expressed in CHO-K1 cell line (CHO-K1/sGC) (Homo sapiens, UniProt Q02108+Q02153)
T1 construct: expressed in transfected cells
T1 sequence (Q02108 1-690): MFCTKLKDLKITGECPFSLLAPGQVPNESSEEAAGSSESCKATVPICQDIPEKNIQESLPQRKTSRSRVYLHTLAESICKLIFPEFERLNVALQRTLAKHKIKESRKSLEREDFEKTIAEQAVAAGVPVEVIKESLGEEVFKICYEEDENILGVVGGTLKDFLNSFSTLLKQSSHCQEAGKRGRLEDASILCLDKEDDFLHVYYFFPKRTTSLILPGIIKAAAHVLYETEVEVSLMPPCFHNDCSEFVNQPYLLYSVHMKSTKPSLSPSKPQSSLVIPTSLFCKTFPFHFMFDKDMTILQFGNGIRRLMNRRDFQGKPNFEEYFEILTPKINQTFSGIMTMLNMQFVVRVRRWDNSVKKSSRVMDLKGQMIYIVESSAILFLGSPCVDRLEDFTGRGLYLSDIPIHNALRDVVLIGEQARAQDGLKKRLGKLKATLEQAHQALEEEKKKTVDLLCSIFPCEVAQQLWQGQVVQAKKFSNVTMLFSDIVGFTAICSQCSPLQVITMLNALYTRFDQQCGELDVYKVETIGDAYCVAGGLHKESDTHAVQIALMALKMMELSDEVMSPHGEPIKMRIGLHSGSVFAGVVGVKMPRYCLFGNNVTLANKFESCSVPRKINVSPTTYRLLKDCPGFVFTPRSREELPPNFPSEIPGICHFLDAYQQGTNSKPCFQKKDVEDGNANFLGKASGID
T1 sequence (Q02153 1-619): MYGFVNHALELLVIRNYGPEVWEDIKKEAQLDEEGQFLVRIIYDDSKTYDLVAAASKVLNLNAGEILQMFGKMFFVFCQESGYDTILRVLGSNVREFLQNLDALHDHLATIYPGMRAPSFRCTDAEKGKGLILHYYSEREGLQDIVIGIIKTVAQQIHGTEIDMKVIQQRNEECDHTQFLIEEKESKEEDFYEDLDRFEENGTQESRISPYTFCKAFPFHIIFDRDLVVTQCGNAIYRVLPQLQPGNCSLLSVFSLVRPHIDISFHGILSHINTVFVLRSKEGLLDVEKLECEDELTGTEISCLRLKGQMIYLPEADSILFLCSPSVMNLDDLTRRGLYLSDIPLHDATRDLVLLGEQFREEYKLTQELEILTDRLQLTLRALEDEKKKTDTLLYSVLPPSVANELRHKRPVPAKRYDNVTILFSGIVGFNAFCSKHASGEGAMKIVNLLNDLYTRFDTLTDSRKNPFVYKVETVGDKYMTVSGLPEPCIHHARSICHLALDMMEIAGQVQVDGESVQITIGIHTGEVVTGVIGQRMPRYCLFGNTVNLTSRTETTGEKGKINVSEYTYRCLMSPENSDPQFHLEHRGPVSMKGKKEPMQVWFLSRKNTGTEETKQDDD
Assay: Cell-based sGC Functional Assay (CASA Assay), cGMP generation
Settings: CHO-K1/sGC cells, 1 hr at 37° C., cGMP by HTRF, 4P fit; presence or absence of 1 μM DETA-NO not given; read-out: IP (nM) (inflection point)
Procedure, shortened: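 Readout is HTRF cGMP in lysates, normalised to the maximal response of reference sGC activator Compound A (100%), with a 4P fit giving IP and fold induction. Cells were CHO-K1/sGC (human α1/β1) in EBSS buffer with IBMX, incubated 1 hr at 37° C with compound. Run with and without 1 μM DETA-NO; final DMSO 2.5%.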

Row | Compound | EC50 [nM]
1 | CC1(c2ccc(Cl)cc2)C(=O)Nc2nc(-c3cn4ncnc4c(CCC(F)(F)C(F)(F)F)n3)nc(O)c21 (centres unmarked) [Example 126A, 5-(4-chlorophenyl)-4-hydroxy-5-methyl-2-(8-(3,3,4,4,4-pentafluorobutyl)-[1,2,4]triazolo[1,5-a]pyrazin-6-yl)-5H-pyrrolo[2,3-d]pyrimidin-6(7H)-one] | 132
2 | CC1(c2ccccn2)C(=O)Nc2nc(-c3cn4ncnc4c(CCC(F)(F)C(F)(F)F)n3)nc(O)c21 (centres unmarked) [Example 127B, 4-hydroxy-5-methyl-2-(8-(3,3,4,4,4-pentafluorobutyl)-[1,2,4]triazolo[1,5-a]pyrazin-6-yl)-5-(pyridin-2-yl)-5H-pyrrolo[2,3-d]pyrimidin-6(7H)-one] | 1260
3 | CC1(c2ccccc2)C(=O)Nc2nc(-c3cn4ncnc4c(CCC(F)(F)C(F)(F)F)n3)nc(O)c21 (centres unmarked) [Example 128B, 4-hydroxy-5-methyl-2-(8-(3,3,4,4,4-pentafluorobutyl)-[1,2,4]triazolo[1,5-a]pyrazin-6-yl)-5-phenyl-5H-pyrrolo[2,3-d]pyrimidin-6(7H)-one] | 128
4 | CC1(c2cccc(F)c2)C(=O)Nc2nc(-c3cn4ncnc4c(CCC(F)(F)C(F)(F)F)n3)nc(O)c21 (centres unmarked) [Example 129B, 5-(3-fluorophenyl)-4-hydroxy-5-methyl-2-(8-(3,3,4,4,4-pentafluorobutyl)-[1,2,4]triazolo[1,5-a]pyrazin-6-yl)-5,7-dihydro-6H-pyrrolo[2,3-d]pyrimidin-6-one] | 51.7
5 | Cc1ccc(C2(C)C(=O)Nc3nc(-c4cn5ncnc5c(CCC(F)(F)C(F)(F)F)n4)nc(O)c32)nc1 (centres unmarked) [Example 130B, 4-hydroxy-5-methyl-5-(5-methylpyridin-2-yl)-2-(8-(3,3,3,4,4,4-pentafluorobutyl)-[1,2,4]triazolo[1,5-a]pyrazin-6-yl)-5H-pyrrolo[2,3-d]pyrimidin-6(7H)-one] | 503
6 | CC1(c2ccc(C#N)cn2)C(=O)Nc2nc(-c3cn4ncnc4c(CCC(F)(F)C(F)(F)F)n3)nc(O)c21 (centres unmarked) [Example 131A, 6-(4-hydroxy-5-methyl-6-oxo-2-(8-(3,3,4,4,4-pentafluorobutyl)-[1,2,4]triazolo[1,5-a]pyrazin-6-yl)-6,7-dihydro-5H-pyrrolo[2,3-d]pyrimidin-5-yl)nicotinonitrile] | 1470
7 | Cc1nc2c(CCC(F)(F)C(F)(F)F)nc(-c3nc(O)c4c(n3)NC(=O)C4(C)c3ccc(Cl)c(F)c3)cn2n1 (centres unmarked) [Example 132B, 5-(4-chloro-3-fluorophenyl)-4-hydroxy-5-methyl-2-(2-methyl-8-(3,3,4,4,4-pentafluorobutyl)-[1,2,4]triazolo[1,5-a]pyrazin-6-yl)-5H-pyrrolo[2,3-d]pyrimidin-6(7H)-one] | 442
8 | Cc1nc2c(CCC(F)(F)C(F)(F)F)nc(-c3nc(O)c4c(n3)NC(=O)[C@@]4(C)c3ccc(F)cc3)cn2n1 [Example 133B, (S)-5-(4-fluorophenyl)-4-hydroxy-5-methyl-2-(2-methyl-8-(3,3,4,4,4-pentafluorobutyl)-[1,2,4]triazolo[1,5-a]pyrazin-6-yl)-5H-pyrrolo[2,3-d]pyrimidin-6(7H)-one] | 856
9 | CC1(c2ccc(Cl)cn2)C(=O)Nc2nc(-c3cn4ncnc4c(CCCC(F)(F)F)n3)nc(O)c21 (centres unmarked) [Example 134A, 5-(5-chloropyridin-2-yl)-4-hydroxy-5-methyl-2-(8-(4,4,4-trifluorobutyl)-[1,2,4]triazolo[1,5-a]pyrazin-6-yl)-5H-pyrrolo[2,3-d]pyrimidin-6(7H)-one] | 857
10 | C[C@@]1(c2ccc(F)cc2)C(=O)Nc2nc(-c3cn4ncnc4c(CCCC(F)(F)F)n3)nc(O)c21 [Example 135A] | 183
11 | CC1(c2ccc(F)cn2)C(=O)Nc2nc(-c3cn4ncnc4c(CCCC(F)(F)F)n3)nc(O)c21 (centres unmarked) [Example 136B, 5-(5-fluoropyridin-2-yl)-4-hydroxy-5-methyl-2-(8-(4,4,4-trifluorobutyl)-[1,2,4]triazolo[1,5-a]pyrazin-6-yl)-5H-pyrrolo[2,3-d]pyrimidin-6(7H)-one] | 514
12 | CC1(c2ccc(C(F)(F)F)cc2)C(=O)Nc2nc(-c3cn4ncnc4c(CCCC(F)(F)F)n3)nc(O)c21 (centres unmarked) [Example 137B, 4-hydroxy-5-methyl-2-(8-(4,4,4-trifluorobutyl)-[1,2,4]triazolo[1,5-a]pyrazin-6-yl)-5-(4-(trifluoromethyl)phenyl)-5H-pyrrolo[2,3-d]pyrimidin-6(7H)-one] | 597
13 | CC1(c2ccc(Cl)c(F)c2)C(=O)Nc2nc(-c3cn4ncnc4c(CCCC(F)(F)F)n3)nc(O)c21 (centres unmarked) [Example 138B, 5-(4-chloro-3-fluorophenyl)-4-hydroxy-5-methyl-2-(8-(4,4,4-trifluorobutyl)-[1,2,4]triazolo[1,5-a]pyrazin-6-yl)-5H-pyrrolo[2,3-d]pyrimidin-6(7H)-one] | 344
14 | O=C1Nc2nc(-c3cn4ncnc4c(CCCC(F)(F)F)n3)nc(O)c2C1(c1ccc(F)cc1)C1CC1 (centres unmarked) [Example 139B, 5-cyclopropyl-5-(4-fluorophenyl)-4-hydroxy-2-(8-(4,4,4-trifluorobutyl)-[1,2,4]triazolo[1,5-a]pyrazin-6-yl)-5H-pyrrolo[2,3-d]pyrimidin-6(7H)-one] | 673
15 | O=C1Nc2nc(-c3cn4ncnc4c(CCCC(F)(F)F)n3)nc(O)c2C1(c1ccc(Cl)cc1)C1CC1 (centres unmarked) [Example 140B, 5-(4-chlorophenyl)-5-cyclopropyl-4-hydroxy-2-(8-(4,4,4-trifluorobutyl)-[1,2,4]triazolo[1,5-a]pyrazin-6-yl)-5H-pyrrolo[2,3-d]pyrimidin-6(7H)-one] | 277
16 | O=C1Nc2nc(-c3cn4ncnc4c(CCCC(F)(F)F)n3)nc(O)c2C1(c1ccc(F)c(F)c1)C1CC1 (centres unmarked) [Example 141A, 5-cyclopropyl-5-(3,4-difluorophenyl)-4-hydroxy-2-(8-(4,4,4-trifluorobutyl)-[1,2,4]triazolo[1,5-a]pyrazin-6-yl)-5H-pyrrolo[2,3-d]pyrimidin-6(7H)-one] | 183
17 | CC1(c2ccc(Cl)cc2)C(=O)Nc2nc(-c3cn4ncnc4c(CCCC(F)(F)F)n3)nc(O)c21 (centres unmarked) [Example 142A, 5-(4-chlorophenyl)-4-hydroxy-5-methyl-2-(8-(4,4,4-trifluorobutyl)-[1,2,4]triazolo[1,5-a]pyrazin-6-yl)-5H-pyrrolo[2,3-d]pyrimidin-6(7H)-one] | 207
18 | CC1(c2ccccc2)C(=O)Nc2nc(-c3cn4ncnc4c(CCCC(F)(F)F)n3)nc(O)c21 (centres unmarked) [Example 143B, 4-hydroxy-5-methyl-5-phenyl-2-(8-(4,4,4-trifluorobutyl)-[1,2,4]triazolo[1,5-a]pyrazin-6-yl)-5H-pyrrolo[2,3-d]pyrimidin-6(7H)-one] | 301
19 | O=C1Nc2nc(-c3cn4ncnc4c(CCCC(F)(F)F)n3)nc(O)c2C1(c1ccc(C(F)(F)F)cc1)C1CC1 (centres unmarked) [Example 144A, 5-cyclopropyl-4-hydroxy-2-(8-(4,4,4-trifluorobutyl)-[1,2,4]triazolo[1,5-a]pyrazin-6-yl)-5-(4-(trifluoromethyl)phenyl)-5H-pyrrolo[2,3-d]pyrimidin-6(7H)-one] | 1300
20 | CC1(c2ccccn2)C(=O)Nc2nc(-c3cn4ncnc4c(CCCC(F)(F)F)n3)nc(O)c21 (centres unmarked) [Example 145B, 4-hydroxy-5-methyl-5-(pyridin-2-yl)-2-(8-(4,4,4-trifluorobutyl)-[1,2,4]triazolo[1,5-a]pyrazin-6-yl)-5H-pyrrolo[2,3-d]pyrimidin-6(7H)-one] | 1220
